Converted amounts (≈) assume the structure as drawn. “And” between values parts separate entries of the source, which are not always exact repeats. Equal values may be shown once. Read-outs that look alike come from different tables or passages of the source.
Tests used:
[1] = system: B16 melanoma cells; experiment: cell apoptosis rate, AnnexinV-FITC flow cytometry; type: cell-based; conditions: 72 h
Protocol: (§1) To determine the safety of the various compounds, after treatment with the test compounds cell viability was determined by using MTT colorimetric assay and cell apoptosis rate by using AnnexinV-FITC apoptosis analysis kit (Tianjin Sungene Biotech Co., Ltd). 1 × 10^6 cells were added to individual wells of a 24-well plate. […] Cell viability was determined in a colorimetric assay using mitochondrial dehydrogenase activity in active mitochondria to form purple formazan. Apoptosis rate in a fluorochrome assay using flow cytometry (BD, USA).

[2] = target: T1, tyrosinase in B16 melanoma cells (Mus musculus, UniProt P11344); experiment: kinetic analysis of tyrosinase activity inhibition, B16 lysate protein, L-DOPA substrate, Lineweaver-Burk plot; type: biochemical; conditions: for K IS (inhibition constant) / mode of inhibition: L-DOPA substrate; for K IS (inhibition constant): from intercept of Lineweaver-Burk plots; for mode of inhibition: Lineweaver-Burk plot
T1 construct: Each well of a 96-well plate contained 40 μg of lysate protein; endogenous in cells; host or cells: B16 melanoma cells (lysate)
T1 sequence (P11344 19-533): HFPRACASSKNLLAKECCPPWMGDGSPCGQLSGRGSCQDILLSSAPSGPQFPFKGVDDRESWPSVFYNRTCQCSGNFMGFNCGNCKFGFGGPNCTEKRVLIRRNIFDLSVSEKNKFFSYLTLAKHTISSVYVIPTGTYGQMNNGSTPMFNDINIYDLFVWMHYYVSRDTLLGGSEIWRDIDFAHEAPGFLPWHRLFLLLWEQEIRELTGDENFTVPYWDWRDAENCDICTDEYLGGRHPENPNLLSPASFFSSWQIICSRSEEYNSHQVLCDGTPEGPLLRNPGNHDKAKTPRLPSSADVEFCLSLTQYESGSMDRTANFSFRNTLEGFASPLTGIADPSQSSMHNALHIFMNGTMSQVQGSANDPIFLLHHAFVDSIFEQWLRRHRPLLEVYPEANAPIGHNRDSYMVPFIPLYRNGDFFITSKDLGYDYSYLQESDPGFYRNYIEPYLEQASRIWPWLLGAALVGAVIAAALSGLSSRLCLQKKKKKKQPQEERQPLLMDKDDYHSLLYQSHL
Protocol: The cells were treated with test compounds as described above for the determination of tyrosinase activity. […] After incubation at 37°C for 30 min, the absorbance was measured at 475 nm. The inhibition constants for compounds and inhibition type were calculated using Lineweaver-Burk plot. The Lineweaver-Burk plot was widely used to determine important terms in enzyme kinetics, such as K m and V max. The plot provided a useful graphical method for analysis of the Michaelis-Menten equation: V = V max [S]/(K m + [S]). It took the reciprocal gave Lineweaver-Burk plot: 1/V = (K m + [S])/V max [S] = ((K m/V max)(1/ [S])) + (1/V max), where V is the reaction velocity (the reaction rate), K m is the Michaelis-Menten constant, V max is the maximum reaction velocity, and [S] is the substrate concentration. The y-intercept of such a graph was equivalent to the inverse of V max; the x-intercept of the graph represents −1/K m. It also gave a quick, visual impression of the different forms of enzyme inhibition. The inhibition constant (K I or K IS) was generated from the slope of the apparent […]/V max or 1/V max versus the concentrations of compounds.

[3] = cell viability, MTT colorimetric assay; type: cell-based; conditions: mouse
Protocol: as §1

[4] = system: B16 melanoma cells; experiment: cell viability, MTT colorimetric assay; type: cell-based; conditions: for reduction of viable cells: at the higher doses; for cytotoxic activity (reduction of viable cells): dose of 100 μM; for cytotoxic effect: 100, 200, 400 μM, as a whole
Protocol: as §1

[5] = system: cellular tyrosinase in B16 melanoma cells; experiment: cellular tyrosinase activity in B16 melanoma cells; type: cell-based; conditions: for inhibition at 400 µM: Mus musculus, read-out: inhibition on cellular tyrosinase activity; for effect on cellular tyrosinase activity: 100-400 μM
[6] = system: B16 melanoma cells; experiment: cellular melanin content in B16 melanoma cells; type: cell-based; conditions: 100-400 μM, 72 h
Protocol: For melanin content, the cells were treated with test compounds or kojic acid in the presence or absence of α-MSH as described above. The cells were washed with PBS and lyzed with 800 μL of 1 N NaOH (Sigma, USA) containing 10% DMSO for 1 h at 80°C. The absorbance at 400 nm was measured. The melanin content was determined from a standard curve prepared from an authentic standard of synthetic melanin (Sigma, USA).

[7] = target: T1, tyrosinase in B16 melanoma cells; experiment: kinetic analysis of tyrosinase activity inhibition, B16 lysate protein, L-DOPA substrate, Lineweaver-Burk plot; type: biochemical; conditions: read-out: AC50, negative inhibition (acceleration) effect on tyrosinase
[8] = system: Mushroom tyrosinase; experiment: cell-free mushroom tyrosinase assay of fractions (L-Tyr substrate); type: biochemical; conditions: L-Tyr as substrate, fractions at 0-12 μg/mL
Protocol: Mushroom tyrosinase and L-Tyr were reconstituted in 50 mM Na2HPO4-NaH2PO4 buffer (pH 6.8) at 1000 U/mL and 2.5 mM, respectively. A mixture of 60 μL of 50 mM Na2HPO4-NaH2PO4 buffer (pH 6.8) and 100 μL L-Tyr was designated as solution 1 (control group). […] Solutions 1 and 2 were added to 40 μL tyrosinase for 6 min reaction time at 37°C, individually. Absorbance of the resulting solutions was recorded every min by Beckman TU-1810 spectrophotometer at 475 nm. One unit of tyrosinase activity was arbitrarily defined as a rate of increase of 1 absorbance unit per min in the initial linear region of a plot of absorbance against time. The tyrosinase activity determined by the increasing absorbance at 475 nm accompanying by the oxidation of the substrates was calculated as the following formula [20]: (1) Tyrosinase activity %=A2/A1×100, where A1 is absorbance at 475 nm with solutions 1 and tyrosinase and A2 is absorbance at 475 nm with solutions 2 and tyrosinase.

[9] = 100 μM, control set as 0% (mean ± SD)
[10] = 200 μM, control set as 0% (mean ± SD)
[11] = 400 μM, control set as 0% (mean ± SD)
[12] = 100 μM, 72 h, percentage of controls (mean ± SD), read-out: Cell viability
[13] = 200 μM, 72 h, percentage of controls (mean ± SD), read-out: Cell viability
[14] = 400 μM, 72 h, percentage of controls (mean ± SD), read-out: Cell viability
[15] = absence of α-MSH stimulation, 72 h
[16] = α-MSH-stimulated (100 μM α-MSH), 72 h
[17] = α-MSH-stimulated (100 μM α-MSH)
[18] = B16 melanoma cells, 100 μM, 72 h, percentage of controls (mean ± SD), read-out: Cell viability
[19] = B16 melanoma cells, 200 μM, 72 h, percentage of controls (mean ± SD), read-out: Cell viability
[20] = B16 melanoma cells, 400 μM, 72 h, percentage of controls (mean ± SD), read-out: Cell viability

SMILES	Apoptosis rate [1, 9]	Apoptosis rate [1, 10]	Apoptosis rate [1, 11]	effect on cellular tyrosinase activity [5, 15]	effect on cellular tyrosinase activity [5, 16]	effect on cellular melanin content ([6]; absence of α-MSH stimulation)	effect on cellular melanin content [6, 17]	viability at 72 h, 100 µM [3, 18] [%]	viability at 72 h, 200 µM [3, 19] [%]	viability at 72 h, 400 µM [3, 20] [%]	cytotoxic effect [4]	further results
C=C(C)[C@@H]1CC[C@]2(CO)CC[C@]3(C)[C@H](CC[C@@H]4[C@@]5(C)CC[C@H](O)C(C)(C)[C@@H]5CC[C@]43C)[C@@H]12 [Fa-a, betulin]	9.01 ± 2.21%	12.21 ± 3.03%	15.31 ± 2.90%	significantly reduced cellular tyrosinase activity	able to inhibit the increase in cellular tyrosinase activity	reduced cellular melanin content	reduced cellular melanin content					IC50 [2]: 5.13 µM; Ki [2]: 0.4 µM; K IS (inhibition constant) [2]: 0.4 µM; mode of inhibition [2]: noncompetitive inhibitor; mode of inhibition ([2]; listed as Betulin): noncompetitive inhibition; viability at 72 h, 100 µM [3, 12]: 88.3 ± 3.21%; viability at 72 h, 200 µM [3, 13]: 75.1 ± 2.65%; viability at 72 h, 400 µM [3, 14]: 65.3 ± 4.41%; reduction of viable cells [4]: 34.68%; cytotoxic activity (reduction of viable cells) [4]: 11.69%; inhibition at 400 µM ([5]; B16, 400 μM, 72 h, absence of α-MSH): 30%
CC(C)=CCC[C@@H](C(=O)O)[C@H]1CC[C@@]2(C)C3=C(CC[C@]12C)[C@@]1(C)CC[C@H](O)C(C)(C)[C@@H]1CC3 [Fa-b, trametenolic acid]	5.11 ± 4.01%	6.51 ± 3.31%	10.09 ± 4.31%	significantly reduced cellular tyrosinase activity	able to inhibit the increase in cellular tyrosinase activity	reduced cellular melanin content	reduced cellular melanin content					IC50 [2]: 7.25 µM; Ki [2]: 0.9 µM; K IS (inhibition constant) [2]: 0.5 µM; mode of inhibition [2]: mixed inhibitor; mode of inhibition ([2]; listed as trametenolic acid): mixed inhibition; viability at 72 h, 100 µM [3, 12]: 96.5 ± 3.08%; viability at 72 h, 200 µM [3, 13]: 85.3 ± 4.13%; viability at 72 h, 400 µM [3, 14]: 70 ± 2.05%; reduction of viable cells [4]: 29.98%; cytotoxic activity (reduction of viable cells) [4]: 4.55%; inhibition at 400 µM ([5]; B16, 72 h): 23%
CC(C)=CC[C@@H](O)[C@@H](C)[C@H]1CC[C@@]2(C)C3=C(CC[C@]12C)[C@@]1(C)CC[C@H](O)C(C)(C)[C@@H]1CC3 [Fb-a, inotodiol]	3.91 ± 3.27%	5.10 ± 2.61∗ %	6.07 ± 3.53∗∗ %		significantly increased melanin content and cellular tyrosinase activity	significantly increased melanin content and cellular tyrosinase activity	significantly increased melanin content and cellular tyrosinase activity	99.3 ± 1.53	99.4 ± 1.41	98.2 ± 1.35	a little or no cytotoxic effect	AC50 [2]: 9.74 µM; increase of cellular tyrosinase activity ([5]; 400 μM, 72 h, absence of α-MSH): 21.24%
CC(C)=CCC[C@@H](C)[C@H]1CC[C@@]2(C)C3=C(CC[C@]12C)[C@@]1(C)CC[C@H](O)C(C)(C)[C@@H]1CC3 [Fb-b, lanoserol]	0.31 ± 4.37∗∗∗ %	2.62 ± 3.33∗∗∗ %	5.12 ± 2.35∗ %		significantly increased melanin content and cellular tyrosinase activity	significantly increased melanin content and cellular tyrosinase activity	significantly increased melanin content and cellular tyrosinase activity	100 ± 2.56	96.3 ± 2.61	94.6 ± 3.03	a little or no cytotoxic effect	AC50 [7]: 8.43 µM; increase of cellular tyrosinase activity ([5]; 400 μM, 72 h, absence of α-MSH): 18.21%
O=C(O)c1cccnc1 [Fc-a, nicotinie acid]	10.12% and 10.12 ± 1.14%	25.44% and 25.44 ± 1.53∗∗∗ %	30.51% and 30.51 ± 1.11∗∗∗ %	slight or no inhibition				73.5 ± 3.11	45.3 ± 2.56	40.5 ± 2.12	highest cytotoxic effect in dose-dependent manner	
CC(C(O)CCC(C)(C)O)[C@H]1CC[C@@]2(C)C3=C(CC[C@]12C)[C@@]1(C)CC[C@H](O)C(C)(C)[C@@H]1CC3 (stereo partly drawn) [Fd-a, 3β,22,25-trihydroxy-lanosta-8-ene]				slight or no inhibition								Apoptosis rate ([1]; mouse, 100 μM): 1.21 ± 2.31%; Apoptosis rate ([1]; mouse, 200 μM): 2.15 ± 3.92%; viability at 72 h, 100 µM [3]: 96.7 ± 1.01%; viability at 72 h, 200 µM [3]: 97.1 ± 1.12%; viability at 72 h, 400 µM [3]: 85 ± 1.51%
O=c1cc(CO)occ1O [kojic acid, Kojic acid, reference compound]	9.45 ± 1.15%	12.36 ± 1.19%	15.05 ± 2.21%	reduced tyrosinase activity as well as melanin content	reduced tyrosinase activity as well as melanin content	reduced tyrosinase activity as well as melanin content	reduced tyrosinase activity as well as melanin content	92.4 ± 4.41	86.1 ± 2.12	70.9 ± 3.12		IC50, tyrosinase inhibitory activity [8]: 5.23 µg/mL (≈ 36.8 µM)

Source: publication PMC4145793, “Inhibitory and Acceleratory Effects of Inonotus obliquus on Tyrosinase Activity and Melanin Formation in B16 Melanoma Cells” (Evidence-based Complementary and Alternative Medicine : eCAM, 2014)
